Values quoted from earlier work, collected in US5780494A, “Piperidinyl-terminated alkylamino ethynl alanine amino diol compounds for treatment of hypertension” (G. D. Searle & Co., priority 1997, dated 1998).
Square brackets hold non-standard residues; d marks the D form. Peptide text beside a SMILES is read from it. * marks the point of attachment. Sta = CC(C)C[C@H](N)[C@@H](O)CC(=O)O; Isovaleryl = CC(C)CC(=O)*

What was measured:
[1] = system: cathepsin D
[2] = system: renin
[3] = system: hog renin; details: after the injection of hog renin into nephrectomized rats
[4] = system: pepsin

With `CC(C)CC(=O)N[C@H](C(=O)N[C@H](C(=O)N[C@@H](CC(C)C)[C@@H](O)CC(=O)N[C@@H](C)C(=O)N[C@@H](CC(C)C)[C@@H](O)CC(=O)O)C(C)C)C(C)C` [pepstatin] (Isovaleryl-VV[Sta]A[Sta]-OH) as the molecule, how does the “inhibition of cathepsin D” value [1] read?
Its value is “inhibitor”.

And the inhibition of renin [2]?
The inhibition of renin was “inhibitor”.

And the blood pressure reduction [3]?
Its blood pressure reduction is “found to reduce blood pressure”.

What about the inhibition of pepsin [4] of the same molecule?
Its inhibition of pepsin is “inhibitor”.
